Measurements published in US11006631B2, “Substituted pyrimidinyloxy pyridine derivatives as herbicides” (FMC Corporation, priority 2015, dated 2021).

How the values were obtained:
Type in all cases: in vivo
[1] = test system: barnyardgrass (Echinochloa crus-galli); assay: Test A preemergence, barnyardgrass; settings: 0 to 100 scale
From the text: (§1) Seeds of plant species selected from bamyardgrass (Echinochloa crus-galli), kochia (Kochia scoparia), ragweed (common ragweed, Ambrosia elatior), ryegrass, Italian (Italian ryegrass, Lolium multiflorum), foxtail, giant (giant foxtail, Setaria faberii), pigweed (Amaranthus retroflexus), crabgrass, large (large crabgrass, Digitaria sanguinalis), momingglory (Ipomoea spp.), velvetleaf (Abutilon theophrasti), wheat (Triticum aestivum), and corn (Zea mays) were planted into a blend of loam soil and sand and treated preemergence with a directed soil spray using test chemicals formulated in a non-phytotoxic solvent mixture which included a surfactant. At the same time, plants selected from these crop and weed species and also blackgrass (Alopecurus myosuroides), and galium (catchweed bedstraw, Galium aparine) were planted in pots containing the same blend of loam soil and sand and treated with postemergence applications of test chemicals formulated in the same manner. Plants ranged in height from 2 to 10 cm and were in the one- to two-leaf stage for the postemergence treatment. Treated plants and untreated controls were maintained in a greenhouse for approximately 10 days, after which time all treated plants were compared to untreated controls and visually evaluated for injury. Plant response ratings, summarized in Table A, are based on a 0 to 100 scale where 0 is no effect and 100 is complete control. A dash (-) response means no test result.

[2] = test system: foxtail, giant (giant foxtail, Setaria faberii); assay: Test A preemergence, foxtail, giant; settings: 0 to 100 scale
From the text: as §1

[3] = test system: pigweed (Amaranthus retroflexus); assay: Test A preemergence, pigweed; settings: 0 to 100 scale
From the text: as §1

[4] = test system: crabgrass, large (large crabgrass, Digitaria sanguinalis); assay: Test A preemergence, crabgrass, large; settings: 0 to 100 scale
From the text: as §1

[5] = test system: morningglory (Ipomoea spp.); assay: Test A preemergence, morningglory; settings: 0 to 100 scale
From the text: as §1

[6] = test system: velvetleaf (Abutilon theophrasti); assay: Test A preemergence, velvetleaf; settings: 0 to 100 scale
From the text: as §1

[7] = test system: wheat (Triticum aestivum); assay: Test A preemergence, wheat; settings: 0 to 100 scale
From the text: as §1

corn (Zea mays) [8] = assay: Test A preemergence, corn; settings: 0 to 100 scale
From the text: as §1

[9] = test system: barnyardgrass (Echinochloa crus-galli); assay: Test A postemergence, barnyardgrass; settings: 0 to 100 scale
From the text: as §1

[10] = test system: foxtail, giant (giant foxtail, Setaria faberii); assay: Test A postemergence, foxtail, giant; settings: 0 to 100 scale
From the text: as §1

[11] = test system: pigweed (Amaranthus retroflexus); assay: Test A postemergence, pigweed; settings: 0 to 100 scale
From the text: as §1

[12] = test system: crabgrass, large (large crabgrass, Digitaria sanguinalis); assay: Test A postemergence, crabgrass, large; settings: 0 to 100 scale
From the text: as §1

[13] = test system: morningglory (Ipomoea spp.); assay: Test A postemergence, morningglory; settings: 0 to 100 scale
From the text: as §1

[14] = test system: velvetleaf (Abutilon theophrasti); assay: Test A postemergence, velvetleaf; settings: 0 to 100 scale
From the text: as §1

[15] = test system: wheat (Triticum aestivum); assay: Test A postemergence, wheat; settings: 0 to 100 scale
From the text: as §1

corn (Zea mays) [16] = assay: Test A postemergence, corn; settings: 0 to 100 scale
From the text: as §1

rice (Oryza sativa) = assay: Test B flooded paddy test, rice; settings: Flood, 250 g ai/ha; scale of 0 to 100
Method: (§2) Plant species in the flooded paddy test selected from rice (Oryza sativa), sedge, umbrella (small-flower umbrella sedge, Cyperus difformis), ducksalad (Heteranthera limosa), and barnyardgrass (Echinochloa crus-galli) were grown to the 2-leaf stage for testing. At time of treatment, test pots were flooded to 3 cm above the soil surface, treated by application of test compounds directly to the paddy water, and then maintained at that water depth for the duration of the test. Treated plants and controls were maintained in a greenhouse for 13 to 15 days, after which time all species were compared to controls and visually evaluated. Plant response ratings, summarized in Table B, are based on a scale of 0 to 100 where 0 is no effect and 100 is complete control. A dash (-) response means no test result.

[17] = test system: sedge, umbrella (small-flower umbrella sedge, Cyperus difformis); assay: Test B flooded paddy test, sedge, umbrella; settings: Flood, 250 g ai/ha; scale of 0 to 100
Method: as §2

[18] = test system: ducksalad (Heteranthera limosa); assay: Test B flooded paddy test, ducksalad; settings: Flood, 250 g ai/ha; scale of 0 to 100
Method: as §2

[19] = test system: barnyardgrass (Echinochloa crus-galli); assay: Test B flooded paddy test, barnyardgrass; settings: Flood, 250 g ai/ha; scale of 0 to 100
Method: as §2

Row | SMILES | Plant response rating, Barnyardgrass ([1]; 125 g ai/ha) | Plant response rating, Barnyardgrass ([1]; 500 g ai/ha) | Plant response rating, Foxtail, Giant ([2]; 125 g ai/ha) | Plant response rating, Foxtail, Giant ([2]; 500 g ai/ha) | Plant response rating, Pigweed ([3]; 125 g ai/ha) | Plant response rating, Pigweed ([3]; 500 g ai/ha) | Plant response rating, Crabgrass, Large ([4]; 500 g ai/ha) | Plant response rating, Morningglory ([5]; 500 g ai/ha) | Plant response rating, Velvetleaf ([6]; 125 g ai/ha) | Plant response rating, Velvetleaf ([6]; 500 g ai/ha) | Plant response rating, Wheat ([7]; 125 g ai/ha) | Plant response rating, Wheat ([7]; 500 g ai/ha) | Plant response rating, Corn (corn (Zea mays) [8]; 125 g ai/ha) | Plant response rating, Corn (corn (Zea mays) [8]; 500 g ai/ha) | Plant response rating, Barnyardgrass ([9]; 125 g ai/ha) | Plant response rating, Barnyardgrass ([9]; 500 g ai/ha) | Plant response rating, Foxtail, Giant ([10]; 125 g ai/ha) | Plant response rating, Foxtail, Giant ([10]; 500 g ai/ha) | Plant response rating, Pigweed ([11]; 125 g ai/ha) | Plant response rating, Pigweed ([11]; 500 g ai/ha) | also measured
1 | Clc1cnc(Oc2cccnc2-n2cc(Br)cn2)nc1 [Compound 1, 2-[[2-(4-bromo-1H-pyrazol-1-yl)-3-pyridinyl]oxy]-5-chloropyrimidine] | 10 | 50 | 20 | 80 | 50 | 90 | 100 | 0 | 10 | 30 | 0 | 10 | 0 | 0 | 0 | 10 | 10 | 30 | 90 | 100 | Plant response rating, Crabgrass, Large ([4]; 125 g ai/ha): 40; Plant response rating, Crabgrass, Large ([12]; 125 g ai/ha): 10; Plant response rating, Crabgrass, Large ([12]; 500 g ai/ha): 50; Plant response rating, Morningglory ([13]; 125 g ai/ha): 10; Plant response rating, Morningglory ([13]; 500 g ai/ha): 80; Plant response rating, Velvetleaf ([14]; 125 g ai/ha): 20; Plant response rating, Velvetleaf ([14]; 500 g ai/ha): 50; Plant response rating, Wheat ([15]; 125 g ai/ha): 10; Plant response rating, Wheat ([15]; 500 g ai/ha): 20; Plant response rating, Corn (corn (Zea mays) [16]; 125 g ai/ha): 10; Plant response rating, Corn (corn (Zea mays) [16]; 500 g ai/ha): 20; Plant response rating, Rice (rice (Oryza sativa)): 0; Plant response rating, Sedge, Umbrella [17]: 50; Plant response rating, Ducksalad [18]: 60; Plant response rating, Barnyardgrass [19]: 0
2 | Clc1cnc(Oc2cccnc2-n2cc(Cl)cn2)nc1 [Compound 2, 5-chloro-2-[[2-(4-chloro-1H-pyrazol-1-yl)-3-pyridinyl]oxy]pyrimidine] | 0 | 40 | 10 | 80 | 70 | 90 | 100 | 0 | 10 | 30 | 0 | 10 | 0 | 0 | 0 | 20 | 0 | 30 | 100 | 100 | Plant response rating, Morningglory ([5]; 125 g ai/ha): 0; Plant response rating, Crabgrass, Large ([12]; 125 g ai/ha): 10; Plant response rating, Crabgrass, Large ([12]; 500 g ai/ha): 40; Plant response rating, Morningglory ([13]; 125 g ai/ha): 40; Plant response rating, Morningglory ([13]; 500 g ai/ha): 80; Plant response rating, Velvetleaf ([14]; 125 g ai/ha): 20; Plant response rating, Velvetleaf ([14]; 500 g ai/ha): 70; Plant response rating, Wheat ([15]; 125 g ai/ha): 10; Plant response rating, Wheat ([15]; 500 g ai/ha): 20; Plant response rating, Corn (corn (Zea mays) [16]; 125 g ai/ha): 0; Plant response rating, Corn (corn (Zea mays) [16]; 500 g ai/ha): 10; Plant response rating, Rice (rice (Oryza sativa)): 0; Plant response rating, Sedge, Umbrella [17]: 75; Plant response rating, Ducksalad [18]: 80; Plant response rating, Barnyardgrass [19]: 0
3 | Cc1cnn(-c2ncccc2Oc2ncc(Cl)cn2)c1 [Compound 3] | 0 | 0 | 0 | 0 | 0 | 10 | 0 | 0 | 0 | 0 | 0 | 0 | 0 | 0 | 0 | 10 | 0 | 10 | 10 | 40 | Plant response rating, Crabgrass, Large ([4]; 125 g ai/ha): 0; Plant response rating, Morningglory ([5]; 125 g ai/ha): 0; Plant response rating, Crabgrass, Large ([12]; 125 g ai/ha): 10; Plant response rating, Crabgrass, Large ([12]; 500 g ai/ha): 10; Plant response rating, Morningglory ([13]; 125 g ai/ha): 20; Plant response rating, Morningglory ([13]; 500 g ai/ha): 30; Plant response rating, Velvetleaf ([14]; 125 g ai/ha): 10; Plant response rating, Velvetleaf ([14]; 500 g ai/ha): 20; Plant response rating, Wheat ([15]; 125 g ai/ha): 10; Plant response rating, Wheat ([15]; 500 g ai/ha): 10; Plant response rating, Corn (corn (Zea mays) [16]; 125 g ai/ha): 0; Plant response rating, Corn (corn (Zea mays) [16]; 500 g ai/ha): 10; Plant response rating, Rice (rice (Oryza sativa)): 0; Plant response rating, Sedge, Umbrella [17]: 60; Plant response rating, Ducksalad [18]: 0; Plant response rating, Barnyardgrass [19]: 0
4 | Cc1ccc(Oc2ncc(Cl)cn2)c(-n2cc(Br)cn2)n1 [Compound 10] | 0 | 0 | 0 | 20 | 0 | 40 | 50 | 10 | 0 | 20 | 0 | 0 | 0 | 0 | 0 | 0 | 0 | 0 | 10 | 50 | Plant response rating, Crabgrass, Large ([4]; 125 g ai/ha): 0; Plant response rating, Morningglory ([5]; 125 g ai/ha): 0; Plant response rating, Crabgrass, Large ([12]; 125 g ai/ha): 0; Plant response rating, Crabgrass, Large ([12]; 500 g ai/ha): 10; Plant response rating, Morningglory ([13]; 125 g ai/ha): 0; Plant response rating, Morningglory ([13]; 500 g ai/ha): 10; Plant response rating, Velvetleaf ([14]; 125 g ai/ha): 50; Plant response rating, Velvetleaf ([14]; 500 g ai/ha): 80; Plant response rating, Wheat ([15]; 125 g ai/ha): 0; Plant response rating, Wheat ([15]; 500 g ai/ha): 0; Plant response rating, Corn (corn (Zea mays) [16]; 125 g ai/ha): 0; Plant response rating, Corn (corn (Zea mays) [16]; 500 g ai/ha): 0; Plant response rating, Rice (rice (Oryza sativa)): 0; Plant response rating, Sedge, Umbrella [17]: 0; Plant response rating, Ducksalad [18]: 0; Plant response rating, Barnyardgrass [19]: 0
